Test results: ChEMBL document CHEMBL1201862, “PubChem BioAssay data set” (2004)
Each block holds one compound with its values, some of them ahead of it. Activity calls are given as the source filed them.

Legend:
[1] = target: NADPH oxidase 1 (Homo sapiens, UniProt Q9Y5S8); experiment: Late-stage luminescence-based cell-based dose response assay to identify inhibitors of NADPH oxidase 1 (NOX1): Purchased analogs 2.; assay type: functional
[2] = cytotoxicity dependent on PAX8, dose response, cell-based, plate reader, dry powder (AID 743049); assay type: functional
[3] = target: Paired box protein Pax-8 (Homo sapiens, UniProt Q06710); experiment: inhibitors of PAX8-driven TPO luciferase reporter, dose response, RMG-I cells, cherry-pick (AID 687027); assay type: functional, cell-based;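 note: luciferase reporter driven by Pax8 target thyroperoxidase promoter measured by SteadyGlo luminescence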
Paired box protein Pax-8, sequence (Q06710 whole entry): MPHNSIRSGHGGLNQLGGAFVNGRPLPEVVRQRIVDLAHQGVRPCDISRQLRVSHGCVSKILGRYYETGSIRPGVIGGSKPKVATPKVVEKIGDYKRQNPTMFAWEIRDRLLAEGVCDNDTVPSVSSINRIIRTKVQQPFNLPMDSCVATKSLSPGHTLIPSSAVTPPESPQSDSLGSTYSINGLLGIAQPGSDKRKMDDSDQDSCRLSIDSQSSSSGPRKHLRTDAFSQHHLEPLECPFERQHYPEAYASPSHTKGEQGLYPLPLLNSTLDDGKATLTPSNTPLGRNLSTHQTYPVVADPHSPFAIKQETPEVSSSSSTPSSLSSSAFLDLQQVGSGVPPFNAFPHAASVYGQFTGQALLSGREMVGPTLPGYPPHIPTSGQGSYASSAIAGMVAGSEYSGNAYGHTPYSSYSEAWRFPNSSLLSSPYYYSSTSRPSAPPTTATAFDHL

[4] = PAX5 activity inhibitors, dose response, selectivity assay for PAX8 inhibitor project, cell-based, plate reader, dry powder samples (AID 743047); assay type: functional;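 note: HEK293 cells carrying a Pax5 driven CD19 promoter luciferase reporter; potency of inhibitors that lower reporter luminescence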
[5] = PAX2 cell-based inhibition, dose response, selectivity assay for PAX8 inhibitor project, plate reader, dry powder samples (AID 743048); assay type: functional;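 note: HEK293 cells carrying a WT1 promoter luciferase reporter driven by expressed Pax2; potency is for inhibition of Pax2 driven reporter signal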
[6] = Inhibition of Plasmodium falciparum NF54 Measured in Cell-Based System Using Plate Reader - 2138-11_Inhibitor_Dose_CherryPick_Activity.; assay type: functional
[7] = intracellular Trypanosoma cruzi inhibitors in host cells – cell-based, plate reader, cherry-pick samples, set 3, dose response (AID 651818); assay type: functional;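 note: compounds incubated with infected cells for about four days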
[8] = L. donovani amastigote growth inhibition, dose response, axenic amastigotes, plate reader, cherry pick (AID 651891); assay type: functional, cell-based; settings: Leishmania donovani
[9] = growth inhibition of intracellular T. cruzi, dose response, cell-based, plate reader, dry powder samples (AID 651845); assay type: functional
[10] = cytotoxicity in L-6 rat myocytes, dose response, cytotoxicity control, cell-based, plate reader, cherry-pick (AID 651896); assay type: functional
[11] = T. cruzi intracellular amastigote growth inhibition, dose response, imaging, CA-I/72 strain, bovine embryo skeletal muscle, dry powder (AID 651885); assay type: functional, cell-based
[12] = T. b. rhodesiense proliferation inhibition, dose response, STIB900 strain, plate reader, cherry pick (AID 651893); assay type: functional, cell-based; settings: Trypanosoma brucei
[13] = Inhibition of T. cruzi Tulahuen strain amastigotes in L-6 muscle cells Measured in Cell-Based and Microorganism Combination System Using Plate Reader - 2138-03_Inhibitor_Dose_CherryPick_Activity.; assay type: functional; settings: Rattus norvegicus, L6
[14] = T. cruzi growth inhibition in host cells, dose response, cell-based, plate reader, dry powder, set 2 (AID 652275); assay type: functional
[15] = target: Heat shock protein HSP90 (Homo sapiens, UniProt P07900+P08238); experiment: tumor Hsp90 inhibitor potency, dose response (AID 712); assay type: functional
[16] = target: T1, Mannose-6-phosphate isomerase (Homo sapiens, UniProt P34949); experiment: human PMI inhibitors, high substrate, primary screen, biochemical, fluorescence intensity, high mannose 6-phosphate (AID 1220)
T1 sequence (P34949 whole entry): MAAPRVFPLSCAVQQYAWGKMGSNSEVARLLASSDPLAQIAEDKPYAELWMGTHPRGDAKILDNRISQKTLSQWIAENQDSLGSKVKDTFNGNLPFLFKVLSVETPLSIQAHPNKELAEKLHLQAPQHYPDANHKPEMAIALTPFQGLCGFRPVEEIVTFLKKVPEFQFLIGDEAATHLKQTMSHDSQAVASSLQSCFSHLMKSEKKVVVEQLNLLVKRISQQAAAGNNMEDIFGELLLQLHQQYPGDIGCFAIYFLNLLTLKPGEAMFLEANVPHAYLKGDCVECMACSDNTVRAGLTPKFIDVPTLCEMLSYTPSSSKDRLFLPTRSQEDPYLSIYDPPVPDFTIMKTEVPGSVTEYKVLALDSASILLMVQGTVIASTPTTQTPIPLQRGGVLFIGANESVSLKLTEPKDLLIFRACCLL

[17] = P. falciparum Dd2 growth inhibitors, dose response, SYBR Green, dry powder samples, set 9 (AID 1159568); assay type: functional, cell-based
[18] = HepG2 cell cytotoxicity, dose response, cytotoxicity control, plate reader, dry powder samples (AID 1159569); assay type: functional, cell-based;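 note: inhibitor potency with signal falling toward the positive control level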
[19] = P. falciparum Dd2 growth inhibitors, dose response, SYBR Green, dry powder samples (AID 1159566); assay type: functional, cell-based;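 note: potency for growth inhibition with lower SYBR green DNA signal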
[20] = P. falciparum 3D7-ScDHODH growth inhibitors, dose response, SYBR Green, dry powder samples (AID 1159570); assay type: functional, cell-based;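 note: parasite growth measured after 72 hours of compound exposure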
[21] = P. falciparum ATP4 D1247Y mutant growth inhibitors, dose response, NITD609-resistant line, SYBR Green, dry powder (AID 1159571); assay type: functional, cell-based;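 note: parasites synchronized at ring stage by sorbitol before testing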
[22] = P. falciparum Dd2 growth inhibitors, dose response, SYBR Green, cherry-picked samples (AID 1159567); assay type: functional, cell-based
[23] = half-maximal inhibitory concentration for glucagon-like peptide-1 release, STC-1 cell line, dose-response (AID 1117345); assay type: functional, cell-based
[24] = Glucagon-like peptide 1 release potency, NCI-H716 cell line, dose-response, half-maximal inhibitory concentration (AID 1117344); assay type: functional, cell-based
[25] = HeLa 2N DNA content increase, dose response, cell-based, IC50 (AID 1117349); assay type: functional
[26] = HeLa 4N DNA content increase, dose response, cell-based, IC50 (AID 1117351); assay type: functional
[27] = Dose-response inhibition of insulin secretion in a rat insulinoma line at 5 mM glucose (AID 1117331); assay type: functional, cell-based; settings: INS-1E
[28] = cells; assay type: functional, cell-based; settings: INS-1E

NADPH oxidase 1, sequence (Q9Y5S8 whole entry): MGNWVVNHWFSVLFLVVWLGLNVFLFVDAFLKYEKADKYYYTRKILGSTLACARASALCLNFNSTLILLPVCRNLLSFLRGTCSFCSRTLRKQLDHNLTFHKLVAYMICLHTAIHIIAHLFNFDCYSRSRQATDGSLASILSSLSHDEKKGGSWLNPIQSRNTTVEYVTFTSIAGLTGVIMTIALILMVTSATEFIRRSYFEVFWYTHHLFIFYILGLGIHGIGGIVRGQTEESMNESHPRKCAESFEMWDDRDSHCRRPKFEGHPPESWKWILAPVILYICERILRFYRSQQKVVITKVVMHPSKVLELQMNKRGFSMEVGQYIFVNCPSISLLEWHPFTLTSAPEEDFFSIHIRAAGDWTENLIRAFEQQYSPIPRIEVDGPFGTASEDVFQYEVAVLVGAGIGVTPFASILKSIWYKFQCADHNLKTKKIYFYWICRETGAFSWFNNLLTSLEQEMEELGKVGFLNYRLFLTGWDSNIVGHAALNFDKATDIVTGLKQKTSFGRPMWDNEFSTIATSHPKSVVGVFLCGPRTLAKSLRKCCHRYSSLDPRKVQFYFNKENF

IC50 [1]: 1.11 µM (active)
SMILES: CN(CCO)c1ccc(/C=N/Nc2c(F)c(F)nc(F)c2F)cc1

SMILES: C[C@H](CO)N1C[C@H](C)[C@@H](CN(C)S(=O)(=O)c2ccc(-c3ccccc3)cc2)OCc2cn(nn2)CCCC1=O
AC50 [2]: > 70 µM (inactive) | AC50 [3]: 3.99 µM (active) | AC50 [4]: > 70 µM (inactive) | AC50 [5]: > 70 µM (inactive)

SMILES: COc1ccc(CN(C)C[C@H]2Oc3c(NC(=O)c4ccncc4)cccc3C(=O)N([C@@H](C)CO)C[C@@H]2C)cc1
IC50 [6]: 8.41 µM (inactive) | AC50 [7]: 0.25 µM (active) | IC50 [8]: > 100 µM (inactive) | AC50 [9]: 0.127 µM (active) | IC50 [10]: > 100 µM (inactive) | IC50 [11]: 0.478 µM (active) | IC50 [12]: 15.4 µM (inactive) | IC50 [13]: 8.41 µM (inactive) | AC50 [14]: 0.127 µM (active)

IC50 [15]: 13.307 µM | IC50 [16]: > 50 µM (not active)
SMILES: CCOC(=O)c1c(C)oc2c1c(/C=N/CC1CCCO1)c(O)c1ccccc12 (stereo not drawn)

SMILES: O=C(Nc1ccccc1F)N1CCCCN2[C@H](CO)[C@@H](c3ccc(/C=C/c4ccccc4)cc3)[C@@H]2C1
AC50 [17]: 6.45 µM (active)

SMILES: C[C@H](CO)N1C[C@H](C)[C@H](CN(C)S(=O)(=O)c2ccc(F)cc2)OCc2ccccc2-c2c(n(C)c3ccccc23)C1=O
AC50 [18]: 7.35 µM (active) | AC50 [19]: 0.36 µM (active) | AC50 [20]: 0.572 µM (active) | AC50 [21]: 0.481 µM (active) | AC50 [22]: 1.1 µM (active)

SMILES: c1ccc2sc(SSc3nc4ccccc4s3)nc2c1 [BENZOTHIAZYL DISULFIDE]
IC50 [23]: 5.58 µM (inactive) | IC50 [24]: 9.23 µM (inactive)

SMILES: COC(=O)Nc1nc2cc(C(=O)c3ccccc3)ccc2[nH]1 [MEBENDAZOLE]
IC50 [25]: 0.0761 µM (active) | IC50 [26]: 0.08 µM (active)

SMILES: Cc1ccc(S(=O)(=O)NC(=O)NN2CCCCCC2)cc1 [TOLAZAMIDE]
IC50 [27]: 6.98 µM (inactive) | IC50 [28]: > 33.3 µM (inactive)
